Measured values as given in patent US20230413819A1, “METHODS FOR CONTROLLING FLEA AND TICK INFESTATIONS IN A MAMMAL” (In the Bowl Animal Health, Inc., priority 2021, published 2023).
Read-outs that look alike come from different tables or passages of the source.

How the values were obtained:
[1] = Average plasma concentration of mivorilaner, various daily oral doses (Examples 5 and 11); type: in vivo, dogs; conditions: dog, fed; for concentration at 1056 h: 1056 h after initial dose; for concentration at 1224 h: 1224 h after initial dose; for concentration at 1440 h: 1440 h after initial dose; for concentration at 0 h: 0 h after initial dose; for concentration at 72 h: 72 h after initial dose; for concentration at 120 h: 120 h after initial dose; for concentration at 168 h: 168 h after initial dose; for concentration at 336 h: 336 h after initial dose; for concentration at 504 h: 504 h after initial dose; for concentration at 720 h: 720 h after initial dose; for concentration at 888 h: 888 h after initial dose
[2] = Plasma concentration of mivorilaner, 0.75 mg/kg daily oral (Examples 4 and 10); type: in vivo, dogs; conditions: dog, 0.75 mg/kg/day

O=C(CNC(=O)c1sc(C2=NO[C@@](c3cc(Cl)c(F)c(Cl)c3)(C(F)(F)F)C2)c2c1CCC2)NCC(F)F [mivorilaner, 3-[(5S)-5-(3,5-dichloro-4-fluorophenyl)-5-(trifluoromethyl)-4,5-dihydroisoxazol-3-yl]-N-[2-[(2,2-difluoroethyl)amino]-2-oxoethyl]-5,6-dihydro-4H-cyclopenta[c]thiophene-1-carboxamide]
concentration at 1056 h ([1]; Group 2, 0.125 mg/kg/day oral): 0.428 µg/mL | concentration at 1224 h ([1]; Group 2, 0.125 mg/kg/day oral): 0.485 µg/mL | concentration at 1440 h ([1]; Group 2, 0.125 mg/kg/day oral): 0.897 µg/mL | concentration at 0 h ([1]; Group 3, 0.25 mg/kg/day oral): 0 µg/mL | concentration at 72 h ([1]; Group 3, 0.25 mg/kg/day oral): 0.283 µg/mL | concentration at 120 h ([1]; Group 3, 0.25 mg/kg/day oral): 0.45 µg/mL | concentration at 168 h ([1]; Group 3, 0.25 mg/kg/day oral): 0.579 µg/mL | concentration at 336 h ([1]; Group 3, 0.25 mg/kg/day oral): 0.883 µg/mL | concentration at 504 h ([1]; Group 3, 0.25 mg/kg/day oral): 0.878 µg/mL | concentration at 720 h ([1]; Group 3, 0.25 mg/kg/day oral): 1.02 µg/mL | concentration at 888 h ([1]; Group 3, 0.25 mg/kg/day oral): 1 µg/mL | concentration at 1056 h ([1]; Group 3, 0.25 mg/kg/day oral): 0.945 µg/mL | concentration at 1224 h ([1]; Group 3, 0.25 mg/kg/day oral): 1.04 µg/mL | concentration at 1440 h ([1]; Group 3, 0.25 mg/kg/day oral): 0.999 µg/mL | concentration at 0 h ([1]; Group 4, 0.5 mg/kg/day oral): 0 µg/mL | concentration at 72 h ([1]; Group 4, 0.5 mg/kg/day oral): 0.474 µg/mL | concentration at 120 h ([1]; Group 4, 0.5 mg/kg/day oral): 0.763 µg/mL | concentration at 168 h ([1]; Group 4, 0.5 mg/kg/day oral): 0.888 µg/mL | concentration at 336 h ([1]; Group 4, 0.5 mg/kg/day oral): 1.46 µg/mL | concentration at 504 h ([1]; Group 4, 0.5 mg/kg/day oral): 1.63 µg/mL | concentration at 720 h ([1]; Group 4, 0.5 mg/kg/day oral): 1.87 µg/mL | concentration at 888 h ([1]; Group 4, 0.5 mg/kg/day oral): 1.99 µg/mL | concentration at 1056 h ([1]; Group 4, 0.5 mg/kg/day oral): 2.01 µg/mL | concentration at 1224 h ([1]; Group 4, 0.5 mg/kg/day oral): 2.32 µg/mL | concentration at 1440 h ([1]; Group 4, 0.5 mg/kg/day oral): 2.3 µg/mL | concentration at 0 h ([1]; Group 5, 1.0 mg/kg/day oral): 0 µg/mL | concentration at 72 h ([1]; Group 5, 1.0 mg/kg/day oral): 0.951 µg/mL | concentration at 120 h ([1]; Group 5, 1.0 mg/kg/day oral): 1.51 µg/mL | concentration at 168 h ([1]; Group 5, 1.0 mg/kg/day oral): 1.79 µg/mL | concentration at 336 h ([1]; Group 5, 1.0 mg/kg/day oral): 2.69 µg/mL | concentration at 504 h ([1]; Group 5, 1.0 mg/kg/day oral): 3.02 µg/mL | concentration at 720 h ([1]; Group 5, 1.0 mg/kg/day oral): 3.76 µg/mL | concentration at 888 h ([1]; Group 5, 1.0 mg/kg/day oral): 3.86 µg/mL | concentration at 1056 h ([1]; Group 5, 1.0 mg/kg/day oral): 4.26 µg/mL | concentration at 1224 h ([1]; Group 5, 1.0 mg/kg/day oral): 4.84 µg/mL | concentration at 1440 h ([1]; Group 5, 1.0 mg/kg/day oral): 4.14 µg/mL | concentration at 3 day ([2]; 0.75 mg/kg/day oral days 0-29, Day 3, read-out: Mivorilaner Concentration, Average of 6 canines): 0.674 µg/mL | concentration at 3 day ([2]; 0.75 mg/kg/day oral days 0-29, Day 3, read-out: Mivorilaner Concentration, individual canines): 0.648 µg/mL | concentration at 7 day ([2]; 0.75 mg/kg/day oral days 0-29, Day 7, read-out: Mivorilaner Concentration, Average of 6 canines): 1.45 µg/mL | concentration at 7 day ([2]; 0.75 mg/kg/day oral days 0-29, Day 7, read-out: Mivorilaner Concentration, individual canines): 1.62 µg/mL | concentration at 14 day ([2]; 0.75 mg/kg/day oral days 0-29, Day 14, read-out: Mivorilaner Concentration, Average of 6 canines): 2.1 µg/mL | concentration at 14 day ([2]; 0.75 mg/kg/day oral days 0-29, Day 14, read-out: Mivorilaner Concentration, individual canines): 2.53 µg/mL | concentration at 21 day ([2]; 0.75 mg/kg/day oral days 0-29, Day 21, read-out: Mivorilaner Concentration, Average of 6 canines): 2.73 µg/mL | concentration at 21 day ([2]; 0.75 mg/kg/day oral days 0-29, Day 21, read-out: Mivorilaner Concentration, individual canines): 2.82 µg/mL | concentration at 30 day ([2]; 0.75 mg/kg/day oral days 0-29, Day 30, read-out: Mivorilaner Concentration, Average of 6 canines): 2.63 µg/mL | concentration at 37 day ([2]; 0.75 mg/kg/day oral days 0-29, Day 37, read-out: Mivorilaner Concentration, Average of 6 canines): 2.02 µg/mL | concentration at 37 day ([2]; 0.75 mg/kg/day oral days 0-29, Day 37, read-out: Mivorilaner Concentration, individual canines): 2.41 µg/mL
